Assay results reported in ChEMBL document CHEMBL6153083, “Synthesis, Structural Modification, and Antismall Cell Lung Cancer Activity of 3-Arylisoquinolines with Dual Inhibitory Activity on Topoisomerase I and II” (J Med Chem, 2025).
Activity calls are given as the source filed them. The rule behind the calls is not given here.

Columns and labels:
NCI-H446 = assay: Induction of mitochondrial membrane permeability in human NCI-H446 cells assessed as increase in cytochrome C release at 1 to 8 uM incubated for 48 hrs by Western blot analysis; type: functional, cell-based; details: dose 1-8 µM
NCI-H1048 = assay: Induction of apoptosis in human NCI-H1048 cells at 1.75 to 14 uM incubated for 48 hrs by Annexin V-FITC/PI staining based flow cytometry; type: functional, cell-based; details: dose 1.75-14 µM

Row | SMILES | Activity (NCI-H446) | Activity (NCI-H1048)
1 | CC1CC(C)CN(Cc2cc3c(cc2-c2cc4ccc5c(c4cn2)OCO5)OCO3)C1 (configuration not stated) | Active | 
2 | CCC1CCCC(C)N1Cc1cc2c(cc1-c1cc3ccc4c(c3cn1)OCO4)OCO2 (configuration not stated) |  | Active; Less Effective Than Etoposide
